In ChEMBL document CHEMBL1146425, “Two new antiprotozoal 5-methylcoumarins from Vernonia brachycalyx” (J Nat Prod, 1997) one finds IC50 and Activity data, which are given here for two compounds.

Data set [1] deals with Plasmodium falciparum. The experiment in a line: Antiplasmodial activity against chloroquine-resistant Plasmodium falciparum Dd2 by [G-3H]hypoxanthine uptake. It is filed as functional, organism-based.
A short description of data set [2]: Inhibition of phytohemagglutininin A-induced human lymphocyte proliferation assessed as radiolabeled thymidine uptake at < 300 uM. It is filed as cell-based.
The subject of data set [3] is Plasmodium falciparum. The experiment in a line: Antiplasmodial activity against chloroquine-sensitive Plasmodium falciparum 3D7 by [G-3H]hypoxanthine uptake. It is filed as functional, organism-based.
A short description of data set [4]: Inhibition of phytohemagglutininin A-induced human lymphocyte proliferation assessed as radiolabeled thymidine uptake. Format: cell-based.
In another data set the test system is Leishmania major. The data set can be described thus: Antileishmanial activity against Leishmania major promastigotes assessed as inhibition of [3H]thymidine incorporation after 18 hrs by scintillation counting. It is filed as functional, organism-based. On the technique in general: Dividing cells build labelled thymidine or BrdU into new DNA.

Regarding `Cc1cccc2oc(=O)c3c(c12)O[C@@H](C)[C@@]3(C)CC(=O)[C@@H]1OC1(C)C`, the IC50 (as a rule, the concentration needed to halve the response being measured) in the data set on Plasmodium falciparum [1] turned out to be 54 µM; with Plasmodium falciparum [3] it was 160 µM; in data set [4], 0.313 mM; in the data set on Leishmania major it was 37 µM. Also, the Activity entry in data set [2] is “Not Active”.
For the compound `Cc1cccc2oc(=O)c3c(c12)O[C@H](C)[C@@]3(C)CC(=O)[C@@H]1OC1(C)C` [CYCLOISOBRACHYCOUMARINONE EPOXIDE], the IC50 was 54 µM with Plasmodium falciparum [1], 111 µM with Plasmodium falciparum [3], 1.81 mM in data set [4] and 13.4 µM with Leishmania major.
